Data: patent publication US20090270394A1, “CYCLYLAMINE DERIVATIVES AS CALCIUM CHANNEL BLOCKERS” (priority 2008, published 2009)

Target: T1, Human Cav2.2 channels (Homo sapiens, UniProt Q00975)
T1 construct: expressed in transfected cells
Assay: Fluorescent assay for Cav2.2 channels using potassium depolarization to initiate channel opening
Type: cell-based
Conditions: for inhibition at 10 µM: 10 μM compound, read-out: Cav 2.2 Activity % Inh at 10 μM; for inhibition at 30 µM: 30 μM compound, read-out: Cav 2.2 Activity % Inh at 30 μM; for IC50: 30 mM K (block of open and inactivated channels), read-out: Cav 2.2 Activity IC50 at 30 mM K
How it was run: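 HEK293 cells stably expressing human Cav2.2 with alpha2-delta and beta subunits plus Kir2.3, dye-loaded, then held 30 min at 25° C. in 4, 12, 25 or 30 mM K+ pre-polarization buffer with compound.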

T1 sequence (Q00975 whole entry): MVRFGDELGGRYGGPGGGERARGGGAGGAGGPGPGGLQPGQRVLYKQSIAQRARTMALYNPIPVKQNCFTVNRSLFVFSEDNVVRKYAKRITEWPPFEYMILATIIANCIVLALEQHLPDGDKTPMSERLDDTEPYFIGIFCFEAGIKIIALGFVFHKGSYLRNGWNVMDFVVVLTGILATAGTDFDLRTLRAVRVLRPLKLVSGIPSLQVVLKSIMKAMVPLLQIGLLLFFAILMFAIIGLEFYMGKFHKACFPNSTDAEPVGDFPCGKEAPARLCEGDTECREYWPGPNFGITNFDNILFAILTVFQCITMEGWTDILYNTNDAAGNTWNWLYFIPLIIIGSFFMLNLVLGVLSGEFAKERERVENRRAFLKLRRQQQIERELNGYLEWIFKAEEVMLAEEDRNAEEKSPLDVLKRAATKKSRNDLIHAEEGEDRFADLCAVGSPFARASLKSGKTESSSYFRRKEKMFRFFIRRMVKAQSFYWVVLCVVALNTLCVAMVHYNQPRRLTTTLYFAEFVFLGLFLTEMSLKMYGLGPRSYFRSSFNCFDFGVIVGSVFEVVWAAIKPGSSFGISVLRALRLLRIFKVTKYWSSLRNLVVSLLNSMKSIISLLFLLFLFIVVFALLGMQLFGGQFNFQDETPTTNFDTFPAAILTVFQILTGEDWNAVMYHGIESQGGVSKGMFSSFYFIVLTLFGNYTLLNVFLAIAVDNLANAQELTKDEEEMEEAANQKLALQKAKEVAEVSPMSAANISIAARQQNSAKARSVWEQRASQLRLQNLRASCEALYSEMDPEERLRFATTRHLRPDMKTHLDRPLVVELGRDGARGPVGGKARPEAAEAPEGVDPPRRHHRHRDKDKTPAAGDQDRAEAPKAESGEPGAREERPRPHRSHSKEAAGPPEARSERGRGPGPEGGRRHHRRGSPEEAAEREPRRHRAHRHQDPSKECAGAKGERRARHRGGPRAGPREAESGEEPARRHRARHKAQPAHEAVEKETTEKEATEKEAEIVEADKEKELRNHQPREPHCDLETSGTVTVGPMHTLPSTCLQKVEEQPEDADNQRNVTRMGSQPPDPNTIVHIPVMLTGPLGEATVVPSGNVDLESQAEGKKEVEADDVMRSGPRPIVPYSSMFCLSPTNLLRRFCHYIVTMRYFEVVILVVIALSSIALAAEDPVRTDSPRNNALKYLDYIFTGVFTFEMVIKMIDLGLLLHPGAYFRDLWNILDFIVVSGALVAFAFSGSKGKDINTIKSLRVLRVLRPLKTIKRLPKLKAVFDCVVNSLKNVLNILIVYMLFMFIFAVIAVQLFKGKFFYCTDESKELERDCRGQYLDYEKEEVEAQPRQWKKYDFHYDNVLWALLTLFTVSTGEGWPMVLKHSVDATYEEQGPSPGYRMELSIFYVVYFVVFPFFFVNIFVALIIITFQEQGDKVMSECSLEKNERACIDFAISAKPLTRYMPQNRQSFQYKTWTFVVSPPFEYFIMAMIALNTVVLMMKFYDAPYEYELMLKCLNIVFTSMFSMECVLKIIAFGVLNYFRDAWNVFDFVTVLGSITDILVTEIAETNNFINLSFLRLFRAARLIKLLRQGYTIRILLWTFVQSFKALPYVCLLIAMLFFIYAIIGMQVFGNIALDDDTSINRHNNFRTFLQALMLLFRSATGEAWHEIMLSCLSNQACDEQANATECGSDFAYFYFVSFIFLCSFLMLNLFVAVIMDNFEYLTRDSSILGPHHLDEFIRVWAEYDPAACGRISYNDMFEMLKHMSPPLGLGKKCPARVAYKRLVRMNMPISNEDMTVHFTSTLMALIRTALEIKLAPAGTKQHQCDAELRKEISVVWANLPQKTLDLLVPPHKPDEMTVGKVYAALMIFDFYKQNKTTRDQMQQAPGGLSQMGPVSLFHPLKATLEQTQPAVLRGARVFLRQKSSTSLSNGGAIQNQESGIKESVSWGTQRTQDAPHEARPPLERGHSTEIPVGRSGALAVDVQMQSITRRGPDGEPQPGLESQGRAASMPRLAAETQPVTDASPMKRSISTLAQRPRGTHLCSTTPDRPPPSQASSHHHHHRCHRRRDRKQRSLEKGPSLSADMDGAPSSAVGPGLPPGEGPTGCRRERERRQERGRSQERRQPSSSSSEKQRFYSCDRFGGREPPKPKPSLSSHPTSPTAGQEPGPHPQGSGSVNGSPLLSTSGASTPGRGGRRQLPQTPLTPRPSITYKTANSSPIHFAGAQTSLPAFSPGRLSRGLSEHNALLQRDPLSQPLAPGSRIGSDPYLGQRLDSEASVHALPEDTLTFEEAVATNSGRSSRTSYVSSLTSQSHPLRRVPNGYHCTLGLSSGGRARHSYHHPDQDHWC
T1 sequence (P54289 25-1103 partner): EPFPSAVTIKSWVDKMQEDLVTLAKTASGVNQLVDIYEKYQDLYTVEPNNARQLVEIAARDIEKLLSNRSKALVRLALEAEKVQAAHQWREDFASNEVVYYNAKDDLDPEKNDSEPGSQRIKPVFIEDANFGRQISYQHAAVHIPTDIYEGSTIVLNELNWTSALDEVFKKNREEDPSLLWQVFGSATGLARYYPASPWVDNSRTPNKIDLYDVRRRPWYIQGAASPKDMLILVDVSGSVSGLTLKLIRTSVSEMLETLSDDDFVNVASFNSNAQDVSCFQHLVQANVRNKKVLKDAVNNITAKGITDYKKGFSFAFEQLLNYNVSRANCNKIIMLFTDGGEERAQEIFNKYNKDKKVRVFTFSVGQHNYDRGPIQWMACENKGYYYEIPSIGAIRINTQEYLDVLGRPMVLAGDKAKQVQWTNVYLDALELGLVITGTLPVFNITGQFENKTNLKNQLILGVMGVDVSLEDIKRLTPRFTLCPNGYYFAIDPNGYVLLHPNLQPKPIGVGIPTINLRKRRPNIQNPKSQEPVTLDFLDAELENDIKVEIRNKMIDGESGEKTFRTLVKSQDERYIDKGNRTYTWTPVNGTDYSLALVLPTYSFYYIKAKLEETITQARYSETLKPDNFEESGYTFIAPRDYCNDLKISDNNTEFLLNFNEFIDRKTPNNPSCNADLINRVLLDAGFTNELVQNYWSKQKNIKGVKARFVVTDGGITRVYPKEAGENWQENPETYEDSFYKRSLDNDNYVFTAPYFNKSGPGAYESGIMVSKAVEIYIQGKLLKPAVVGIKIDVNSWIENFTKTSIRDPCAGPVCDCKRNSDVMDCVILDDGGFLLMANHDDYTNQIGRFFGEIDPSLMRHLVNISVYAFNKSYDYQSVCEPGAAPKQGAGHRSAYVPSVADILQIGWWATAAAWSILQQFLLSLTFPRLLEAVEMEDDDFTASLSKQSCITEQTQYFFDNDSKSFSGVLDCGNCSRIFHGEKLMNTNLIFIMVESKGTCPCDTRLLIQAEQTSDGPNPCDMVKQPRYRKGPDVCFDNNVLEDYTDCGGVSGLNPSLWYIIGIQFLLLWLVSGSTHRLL
T1 sequence (P54284 whole entry partner): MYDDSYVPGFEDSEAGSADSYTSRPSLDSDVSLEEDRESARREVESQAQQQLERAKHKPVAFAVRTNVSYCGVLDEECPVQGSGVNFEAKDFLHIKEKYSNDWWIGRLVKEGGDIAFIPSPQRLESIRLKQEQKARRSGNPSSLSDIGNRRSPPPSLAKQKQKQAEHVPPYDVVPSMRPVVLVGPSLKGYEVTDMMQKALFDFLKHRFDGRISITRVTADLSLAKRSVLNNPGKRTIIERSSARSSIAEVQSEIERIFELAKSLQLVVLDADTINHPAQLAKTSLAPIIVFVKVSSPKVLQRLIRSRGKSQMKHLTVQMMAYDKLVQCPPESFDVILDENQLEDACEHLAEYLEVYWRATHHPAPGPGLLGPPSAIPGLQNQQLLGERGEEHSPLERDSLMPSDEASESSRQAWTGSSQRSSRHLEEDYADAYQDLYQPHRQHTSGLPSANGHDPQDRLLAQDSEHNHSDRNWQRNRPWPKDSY

SMILES	inhibition at 10 µM [%]	inhibition at 30 µM [%]	IC50 [nM]
COc1c(C(C)(C)C)cc(C(=O)NC2(C(=O)NCc3cccc(C(F)(F)F)c3)CCCCC2)cc1C(C)(C)C [Compound 33, 3,5-di-tert-butyl-4-methoxy-N-(1-(3-(trifluoromethyl)benzylcarbamoyl)cyclohexyl)benzamide]	81.4	90.5	37.6
CC(C)(C)c1cc(C(=O)NC2(C(=O)NCc3ccc(S(C)(=O)=O)cc3)CCOCC2)cc(C(C)(C)C)c1O [Compound 14, 4-(3,5-di-tert-butyl-4-hydroxybenzamido)-N-(4-(methylsulfonyl)benzyl)tetrahydro-2H-pyran-4-carboxamide]	80.7	81.9	
COc1ccc(CNC(=O)C2(NC(=O)c3cc(C(C)(C)C)c(OC)c(C(C)(C)C)c3)CCCCC2)cc1 [Compound 31, 3,5-di-tert-butyl-4-methoxy-N-(1-(4-methoxybenzylcarbamoyl)cyclohexyl)benzamide]	87.5	105	2.6
CC(C)(C)c1cc(C(=O)NC2(C(=O)NCc3ccccc3)CCCCC2)cc(C(C)(C)C)c1 [Compound 44, N-(1-(benzylcarbamoyl)cyclohexyl)-3,5-di-tert-butylbenzamide]	92.5	97.3	60.4
COc1c(C(C)(C)C)cc(CC(=O)NC2(C(=O)NCc3ccccc3)CCCCC2)cc1C(C)(C)C [Compound 17, N-benzyl-1-(2-(3,5-di-tert-butyl-4-methoxyphenyl)acetamido)cyclohexanecarboxamide]	48.2	90.6	
CC(C)(C)c1cc(NC(=O)C2(NCc3ccccc3)CCCCC2)cc(C(C)(C)C)c1 [Compound 43, 1-(benzylamino)-N-(3,5-di-tert-butylphenyl)cyclohexanecarboxamide]	76.2	82.5	

Other lines, results leading:

inhibition at 10 µM [%]	inhibition at 30 µM [%]	IC50 [nM]	SMILES
99.1	104	9.57	COc1c(C(C)(C)C)cc(C(=O)NC2(C(=O)NCc3cc(C)on3)CCCCC2)cc1C(C)(C)C [Compound 86, 3,5-di-tert-butyl-4-methoxy-N-(1-((5-methylisoxazol-3-yl)methylcarbamoyl)cyclohexyl)benzamide]
89.6	85.8	739	CC(C)(C)NC(=O)C(C)(C)c1ccc(C(=O)NC2(C(=O)NCc3ccccc3)CCCCC2)cc1 [Compound 125, N-(1-(benzylcarbamoyl)cyclohexyl)-4-(1-(tert-butylamino)-2-methyl-1-oxopropan-2-yl)benzamide]
56.3	74.3		CC(C)(C)c1cc(C(=O)NC2(C(=O)NCc3cccc(C(F)(F)F)c3)Cc3ccccc3C2)cc(C(C)(C)C)c1 [Compound 53, 2-(3,5-di-tert-butylbenzamido)-N-(3-(trifluoromethyl)benzyl)-2,3-dihydro-1H-indene-2-carboxamide]
76	90.6	1070	CN1CCC(NC(=O)c2cc(C(C)(C)C)nc(C(C)(C)C)c2)(C(=O)NCc2ccccc2)CC1 [Compound 97, N-(4-(benzylcarbamoyl)-1-methylpiperidin-4-yl)-2,6-di-tert-butylisonicotinamide]
		65.3	CC(C)(C)c1cc(C(=O)NC2(C(=O)NCc3cccnc3)CCCCC2)cc(C(C)(C)C)c1 [Compound 103, 3,5-di-tert-butyl-N-(1-(pyridin-3-ylmethylcarbamoyl)cyclohexyl)benzamide]
50.2	62.5		CC(C)(C)OC(=O)N1CCC(NC(=O)c2cc(C(C)(C)C)nc(C(C)(C)C)c2)(C(=O)NCc2ccccc2)CC1 [Compound 59, tert-butyl 4-(benzylcarbamoyl)-4-(2,6-di-tert-butylisonicotinamido)piperidine-1-carboxylate]
		105	CNC(=O)C1(NC(=O)c2cc(C(C)(C)C)nc(C(C)(C)C)c2)CCCCC1 [Compound 101, 2,6-di-tert-butyl-N-(1-(methylcarbamoyl)cyclohexyl)isonicotinamide]
